How the values were obtained:
Assay in all cases: KinaseProfiler off-target kinase profiling
Type in all cases: biochemical
Settings in all cases: 10 μM, ATP near Km
IR = IR (Homo sapiens (Human), UniProt P06213)
In short: (§1)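 First, compound is added at 10 μM to each kinase reaction containing ATP around the Km. Second, reactions are run in duplicate. Finally, residual activity is expressed relative to control and the two values are averaged.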

CDK3/cyclinE = CDK3/cyclinE (Homo sapiens (Human), UniProt Q00526)
In short: as §1

EphA1 = EphA1 (Homo sapiens (Human), UniProt P21709)
In short: as §1

PAK2 = PAK2 (Homo sapiens (Human), UniProt Q13177)
In short: as §1

DAPK2 = DAPK2 (Homo sapiens (Human), UniProt Q9UIK4)
In short: as §1

GSK3alpha = GSK3alpha (Homo sapiens (Human), UniProt P49840)
In short: as §1

DAPK1 = DAPK1 (Homo sapiens (Human), UniProt P53355)
In short: as §1

Ros = Ros (Homo sapiens (Human), UniProt P08922)
In short: as §1

TAO1 = TAO1 (Homo sapiens (Human), UniProt Q7L7X3)
In short: as §1

Fer = Fer (Homo sapiens (Human), UniProt P16591)
In short: as §1

PRK2 = PRK2 (Homo sapiens (Human), UniProt Q16513)
In short: as §1

MAPKAP-K5 = MAPKAP-K5 (Homo sapiens (Human), UniProt Q8IW41)
In short: as §1

CAMK2b = CAMK2b (Homo sapiens (Human), UniProt Q13554)
In short: as §1

Ron = Ron (Homo sapiens (Human), UniProt Q04912)
In short: as §1

FGFR4 = FGFR4 (Homo sapiens (Human), UniProt P22455)
In short: as §1

GRK6 = GRK6 (Homo sapiens (Human), UniProt P43250)
In short: as §1

HIPK3 = HIPK3 (Homo sapiens (Human), UniProt Q9H422)
In short: as §1

CK2 = CK2 (Homo sapiens (Human), UniProt P68400)
In short: as §1

KDR = KDR (Homo sapiens (Human), UniProt P35968)
In short: as §1

CK2alpha2 = CK2alpha2 (Homo sapiens (Human), UniProt P19784)
In short: as §1

Abl-P = Abl-P (Homo sapiens (Human), UniProt P00519)
In short: as §1

MKNK2 = MKNK2 (Homo sapiens (Human), UniProt Q9HBH9)
In short: as §1

CAMK2g = CAMK2g (Homo sapiens (Human), UniProt Q13555)
In short: as §1

FGFR2 = FGFR2 (Homo sapiens (Human), UniProt P21802)
In short: as §1

PKCgamma = PKCgamma (Homo sapiens (Human), UniProt P05129)
In short: as §1

Flt3 = Flt3 (Homo sapiens (Human), UniProt P36888)
In short: as §1

MKK4_m = MKK4_m (Mus musculus (Mouse), UniProt P47809)
In short: as §1

MAPKAP-K2 = MAPKAP-K2 (Homo sapiens (Human), UniProt P49137)
In short: as §1

Lyn = Lyn (Homo sapiens (Human), UniProt P07948)
In short: as §1

AURKA = AURKA (Homo sapiens (Human), UniProt O14965)
In short: as §1

MLK1 = MLK1 (Homo sapiens (Human), UniProt P80192)
In short: as §1

ErbB4 = ErbB4 (Homo sapiens (Human), UniProt Q15303)
In short: as §1

SRPK1 = SRPK1 (Homo sapiens (Human), UniProt Q96SB4)
In short: as §1

Abl2 = Abl2 (Homo sapiens (Human), UniProt P42684)
In short: as §1

Plk2 = Plk2 (Homo sapiens (Human), UniProt Q9NYY3)
In short: as §1

MSK2 = MSK2 (Homo sapiens (Human), UniProt O75676)
In short: as §1

JNK3 = JNK3 (Homo sapiens (Human), UniProt P53779)
In short: as §1

Haspin = Haspin (Homo sapiens (Human), UniProt Q8TF76)
In short: as §1

DAPK3 = DAPK3 (Homo sapiens (Human), UniProt O43293)
In short: as §1

GSK3alpha, sequence (P49840 whole entry): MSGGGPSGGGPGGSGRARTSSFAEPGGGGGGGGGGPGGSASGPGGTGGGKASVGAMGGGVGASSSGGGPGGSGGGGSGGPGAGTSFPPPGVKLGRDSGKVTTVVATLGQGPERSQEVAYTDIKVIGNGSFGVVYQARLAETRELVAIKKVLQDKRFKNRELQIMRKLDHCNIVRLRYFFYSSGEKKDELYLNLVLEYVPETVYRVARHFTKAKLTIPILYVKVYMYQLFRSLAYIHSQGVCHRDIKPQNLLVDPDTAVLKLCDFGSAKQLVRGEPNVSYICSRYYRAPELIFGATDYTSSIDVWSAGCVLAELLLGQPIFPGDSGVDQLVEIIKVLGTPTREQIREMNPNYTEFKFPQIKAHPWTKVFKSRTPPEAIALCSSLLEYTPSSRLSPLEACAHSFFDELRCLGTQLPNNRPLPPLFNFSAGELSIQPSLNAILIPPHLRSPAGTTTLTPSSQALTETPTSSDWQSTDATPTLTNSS
IR, sequence (P06213 28-1382): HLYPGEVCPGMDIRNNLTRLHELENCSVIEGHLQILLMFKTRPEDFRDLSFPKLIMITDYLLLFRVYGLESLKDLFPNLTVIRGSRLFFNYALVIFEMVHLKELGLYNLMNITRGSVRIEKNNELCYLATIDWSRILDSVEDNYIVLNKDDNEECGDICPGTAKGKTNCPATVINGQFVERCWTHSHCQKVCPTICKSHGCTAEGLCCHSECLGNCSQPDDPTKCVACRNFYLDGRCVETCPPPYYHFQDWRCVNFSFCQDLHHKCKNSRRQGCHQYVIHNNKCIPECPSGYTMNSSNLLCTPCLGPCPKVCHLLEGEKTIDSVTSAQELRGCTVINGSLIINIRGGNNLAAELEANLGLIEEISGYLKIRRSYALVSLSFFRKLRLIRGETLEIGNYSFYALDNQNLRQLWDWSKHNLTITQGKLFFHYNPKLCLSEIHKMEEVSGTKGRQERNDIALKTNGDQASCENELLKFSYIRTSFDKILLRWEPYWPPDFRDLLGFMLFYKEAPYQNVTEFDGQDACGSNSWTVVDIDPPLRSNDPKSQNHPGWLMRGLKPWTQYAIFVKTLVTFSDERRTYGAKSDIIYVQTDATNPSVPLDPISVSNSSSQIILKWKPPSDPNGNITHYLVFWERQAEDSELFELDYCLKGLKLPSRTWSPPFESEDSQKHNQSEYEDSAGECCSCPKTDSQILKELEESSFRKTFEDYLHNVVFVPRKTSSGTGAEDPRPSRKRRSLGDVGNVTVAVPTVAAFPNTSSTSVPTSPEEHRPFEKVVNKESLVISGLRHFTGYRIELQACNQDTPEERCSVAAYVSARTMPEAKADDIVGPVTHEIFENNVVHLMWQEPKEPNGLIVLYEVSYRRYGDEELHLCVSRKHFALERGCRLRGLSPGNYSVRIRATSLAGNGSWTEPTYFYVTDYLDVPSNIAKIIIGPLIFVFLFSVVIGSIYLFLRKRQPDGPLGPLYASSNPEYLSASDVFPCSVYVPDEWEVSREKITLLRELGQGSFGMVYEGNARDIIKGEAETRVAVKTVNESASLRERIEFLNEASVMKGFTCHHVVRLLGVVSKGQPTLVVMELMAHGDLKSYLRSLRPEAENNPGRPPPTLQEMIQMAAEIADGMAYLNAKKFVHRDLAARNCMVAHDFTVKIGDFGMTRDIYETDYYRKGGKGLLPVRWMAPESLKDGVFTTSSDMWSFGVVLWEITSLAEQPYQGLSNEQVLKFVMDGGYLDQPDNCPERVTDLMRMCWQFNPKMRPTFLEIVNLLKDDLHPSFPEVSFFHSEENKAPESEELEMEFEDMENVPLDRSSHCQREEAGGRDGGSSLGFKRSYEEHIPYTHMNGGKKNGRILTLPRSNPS
Abl2, sequence (P42684 whole entry): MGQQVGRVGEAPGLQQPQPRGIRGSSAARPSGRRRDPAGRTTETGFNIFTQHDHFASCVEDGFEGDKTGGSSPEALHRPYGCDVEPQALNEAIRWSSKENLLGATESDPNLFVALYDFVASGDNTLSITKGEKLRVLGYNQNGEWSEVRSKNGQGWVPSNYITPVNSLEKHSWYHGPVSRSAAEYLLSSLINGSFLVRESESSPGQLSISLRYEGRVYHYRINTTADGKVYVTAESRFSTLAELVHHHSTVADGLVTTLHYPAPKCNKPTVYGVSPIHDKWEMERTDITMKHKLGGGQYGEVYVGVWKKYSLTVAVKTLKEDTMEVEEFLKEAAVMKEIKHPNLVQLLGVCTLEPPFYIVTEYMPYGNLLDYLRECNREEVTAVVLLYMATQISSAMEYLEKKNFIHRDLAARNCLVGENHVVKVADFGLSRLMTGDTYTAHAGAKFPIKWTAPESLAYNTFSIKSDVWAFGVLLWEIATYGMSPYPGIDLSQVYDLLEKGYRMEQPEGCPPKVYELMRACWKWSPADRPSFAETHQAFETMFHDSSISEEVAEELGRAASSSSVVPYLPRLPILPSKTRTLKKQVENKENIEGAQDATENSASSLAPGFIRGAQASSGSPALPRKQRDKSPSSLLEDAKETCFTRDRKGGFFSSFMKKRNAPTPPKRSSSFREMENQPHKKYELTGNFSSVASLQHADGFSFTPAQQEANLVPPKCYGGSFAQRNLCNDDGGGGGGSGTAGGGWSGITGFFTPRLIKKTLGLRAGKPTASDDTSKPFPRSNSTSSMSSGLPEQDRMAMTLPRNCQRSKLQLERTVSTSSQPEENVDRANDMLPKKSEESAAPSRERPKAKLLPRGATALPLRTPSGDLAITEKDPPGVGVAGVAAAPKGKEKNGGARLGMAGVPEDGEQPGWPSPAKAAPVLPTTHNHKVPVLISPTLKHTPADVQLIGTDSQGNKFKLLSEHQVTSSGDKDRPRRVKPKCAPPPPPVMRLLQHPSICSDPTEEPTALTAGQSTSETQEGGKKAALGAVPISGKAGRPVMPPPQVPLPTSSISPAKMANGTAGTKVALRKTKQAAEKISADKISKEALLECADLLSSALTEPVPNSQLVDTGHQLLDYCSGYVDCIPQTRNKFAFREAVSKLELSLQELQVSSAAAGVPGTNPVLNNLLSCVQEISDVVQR
MAPKAP-K5, sequence (Q8IW41 whole entry): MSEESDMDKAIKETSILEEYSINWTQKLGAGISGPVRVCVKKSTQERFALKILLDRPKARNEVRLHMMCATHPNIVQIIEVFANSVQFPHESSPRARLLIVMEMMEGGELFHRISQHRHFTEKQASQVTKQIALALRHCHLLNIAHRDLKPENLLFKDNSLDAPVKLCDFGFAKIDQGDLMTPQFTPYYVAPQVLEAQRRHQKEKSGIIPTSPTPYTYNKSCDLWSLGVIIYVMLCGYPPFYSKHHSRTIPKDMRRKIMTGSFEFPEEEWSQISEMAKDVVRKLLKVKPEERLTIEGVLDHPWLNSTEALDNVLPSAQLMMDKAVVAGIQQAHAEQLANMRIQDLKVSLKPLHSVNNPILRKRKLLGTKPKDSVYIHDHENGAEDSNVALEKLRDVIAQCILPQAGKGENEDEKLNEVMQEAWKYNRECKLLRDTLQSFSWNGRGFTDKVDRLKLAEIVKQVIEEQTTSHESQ
MKK4_m, sequence (P47809 whole entry): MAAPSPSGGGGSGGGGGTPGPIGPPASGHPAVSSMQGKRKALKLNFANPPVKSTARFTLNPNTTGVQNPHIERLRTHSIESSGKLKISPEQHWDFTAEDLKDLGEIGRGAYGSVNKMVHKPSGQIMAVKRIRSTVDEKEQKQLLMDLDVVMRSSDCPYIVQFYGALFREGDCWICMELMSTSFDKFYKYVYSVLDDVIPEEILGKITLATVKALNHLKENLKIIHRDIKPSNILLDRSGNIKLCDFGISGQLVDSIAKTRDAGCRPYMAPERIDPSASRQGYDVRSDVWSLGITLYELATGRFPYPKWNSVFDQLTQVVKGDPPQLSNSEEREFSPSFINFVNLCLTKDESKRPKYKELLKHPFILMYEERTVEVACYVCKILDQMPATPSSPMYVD
DAPK3, sequence (O43293 whole entry): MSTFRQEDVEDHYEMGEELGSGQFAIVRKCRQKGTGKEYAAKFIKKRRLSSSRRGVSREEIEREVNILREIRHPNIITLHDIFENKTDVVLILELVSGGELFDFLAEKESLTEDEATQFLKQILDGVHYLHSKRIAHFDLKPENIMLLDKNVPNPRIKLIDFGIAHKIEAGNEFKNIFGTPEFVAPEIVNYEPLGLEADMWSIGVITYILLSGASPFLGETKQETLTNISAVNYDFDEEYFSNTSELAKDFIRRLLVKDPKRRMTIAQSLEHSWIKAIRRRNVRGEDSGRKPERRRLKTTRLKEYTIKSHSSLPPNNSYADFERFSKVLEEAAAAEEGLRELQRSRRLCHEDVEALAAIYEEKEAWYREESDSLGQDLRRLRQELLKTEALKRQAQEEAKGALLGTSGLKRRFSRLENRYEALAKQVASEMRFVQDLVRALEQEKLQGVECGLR
MKNK2, sequence (Q9HBH9 whole entry): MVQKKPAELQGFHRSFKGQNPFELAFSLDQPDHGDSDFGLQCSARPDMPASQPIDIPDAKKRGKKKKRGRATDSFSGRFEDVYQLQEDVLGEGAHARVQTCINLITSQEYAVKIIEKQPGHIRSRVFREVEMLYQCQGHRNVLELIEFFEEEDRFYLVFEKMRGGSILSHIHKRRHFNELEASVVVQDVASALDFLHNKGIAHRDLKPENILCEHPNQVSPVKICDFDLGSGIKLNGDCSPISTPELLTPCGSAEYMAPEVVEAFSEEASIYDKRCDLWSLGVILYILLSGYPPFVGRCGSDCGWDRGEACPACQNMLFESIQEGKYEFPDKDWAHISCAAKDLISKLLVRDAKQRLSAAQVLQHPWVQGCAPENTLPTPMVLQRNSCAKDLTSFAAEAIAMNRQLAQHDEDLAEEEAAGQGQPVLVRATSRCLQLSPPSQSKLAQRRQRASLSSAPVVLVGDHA

COCc1ccc2c(c1)C(NC(=O)Nc1c(C)c(-c3cnn(C)c3)nn1-c1ccccc1)COC2 (stereo not drawn) [Example 32, 1-(1′,4-dimethyl-1-phenyl-1H,1′H-[3,4′-bipyrazol]-5-yl)-3-(6-(methoxymethyl)isochroman-4-yl)urea]
Avg. POC (IR): 109 POC
Avg. POC (CDK3/cyclinE): 102.5 POC
Avg. POC (EphA1): 114 POC
Avg. POC (PAK2): 108.5 POC
Avg. POC (DAPK2): 103 POC
Avg. POC (GSK3alpha): 112.5 POC
Avg. POC (DAPK1): 131 POC
Avg. POC (Ros): 97.5 POC
Avg. POC (TAO1): 100 POC
Avg. POC (Fer): 85 POC
Avg. POC (PRK2): 99.5 POC
Avg. POC (MAPKAP-K5): 108 POC
Avg. POC (CAMK2b): 102.5 POC
Avg. POC (Ron): 107 POC
Avg. POC (FGFR4): 139.5 POC
Avg. POC (GRK6): 101 POC
Avg. POC (HIPK3): 107 POC
Avg. POC (CK2): 97 POC
Avg. POC (KDR): 129 POC
Avg. POC (CK2alpha2): 104 POC
Avg. POC (Abl-P): 124.5 POC
Avg. POC (MKNK2): 99.5 POC
Avg. POC (CAMK2g): 105 POC
Avg. POC (FGFR2): 110.5 POC
Avg. POC (PKCgamma): 104 POC
Avg. POC (Flt3): 115 POC
Avg. POC (MKK4_m): 133 POC
Avg. POC (MAPKAP-K2): 117.5 POC
Avg. POC (Lyn): 106.5 POC
Avg. POC (AURKA): 112.5 POC
Avg. POC (MLK1): 104.5 POC
Avg. POC (ErbB4): 108.5 POC
Avg. POC (SRPK1): 99.5 POC
Avg. POC (Abl2): 121.5 POC
Avg. POC (Plk2): 103 POC
Avg. POC (MSK2): 99.5 POC
Avg. POC (JNK3): 104 POC
Avg. POC (Haspin): 94 POC
Avg. POC (DAPK3): 111 POC

— patent US10351575B2, “Bicyclic urea, thiourea, guanidine and cyanoguanidine compounds useful for the treatment of pain” (Array BioPharma Inc., priority 2012, dated 2019)
